Experimental data published in patent US11998523B2, “Ascorbic acid and quinone compounds for treating Chagas disease” (IC-MedTech Corp., priority 2016, dated 2024).
Where two headings read alike, the source gives them in different places.

What was measured:
Assay type in all cases: cell-based
[1] = tested on: Epimastigote forms of T. cruzi (Y strain); test: Trypanocidal effect on epimastigote forms (counting in Neubauer hemocytometer, Combination Index method); settings: Trypanosoma cruzi
Method: (§1) All of the experiments were performed using the Y strain of T. cruzi. Pereira et al., Folia Clin. Biol. 1953, 20, 191-208. Epimastigote forms were axenically maintained at 28° C. with weekly transfers in liver infusion tryptose (LIT) medium supplemented with 10% heat-inactivated FBS, pH 7.4. Camargo, Rev. Inst. Med. Trop. São Paulo. 1964, 6, 93-100. Trypomastigote and amastigote forms were obtained from the previously infected monolayers of LLCMK2 cells (epithelial cells of monkey kidney [Macaca mulatta]; CCL-7; American Type Culture Collection, Rockville, MD, USA) in DMEM supplemented with 2 mM L-glutamine and 10% FBS, buffered with sodium bicarbonate in a 5% CO2 air mixture at 37° C. […] The number of epimastigote forms was determined by counting in a Neubauer hemocytometer after 96 hrs. The data were calculated and mathematically expressed as a Combination Index: CI=(IC50 VK3 combined/IC50 VK3 alone)+(IC50 VC combined/IC50 VC alone) for epimastigotes and amastigotes and CI=(EC50 VK3 combined/EC50 VK3 alone)+(EC50 VC combined/EC50 VC alone) for trypomastigotes. […] The data were also graphically expressed as isobolograms by plotting concentrations of vitamins that alone or in combination induced activity against 50% of the forms of the parasite.

[2] = tested on: Trypomastigote forms of T. cruzi (Y strain); test: Trypanocidal effect on trypomastigote forms (viability by mobility, Pizzi-Brener method, Combination Index method); settings: Trypanosoma cruzi
Method: as §1, with “After incubation, the viability” for “The number”, “the parasites” for “epimastigote forms”, “examining mobility under” for “counting in”, “light microscope (Olympus CX31) using the Pizzi-Brener method. […]” for “Neubauer hemocytometer after 96 hrs.”

[3] = tested on: intracellular amastigote forms of T. cruzi (Y strain) in LLCMK2 cells; test: Activity against intracellular amastigote forms in LLCMK2 cells (survival index, Combination Index method); settings: Trypanosoma cruzi
Method: All of the experiments were performed using the Y strain of T. cruzi. Pereira et al., Folia Clin. Biol. 1953, 20, 191-208. Epimastigote forms were axenically maintained at 28° C. with weekly transfers in liver infusion tryptose (LIT) medium supplemented with 10% heat-inactivated FBS, pH 7.4. Camargo, Rev. Inst. Med. Trop. São Paulo. 1964, 6, 93-100. Trypomastigote and amastigote forms were obtained from the previously infected monolayers of LLCMK2 cells (epithelial cells of monkey kidney [Macaca mulatta]; CCL-7; American Type Culture Collection, Rockville, MD, USA) in DMEM supplemented with 2 mM L-glutamine and 10% FBS, buffered with sodium bicarbonate in a 5% CO2 air mixture at 37° C. […] The number of infected cells and amastigotes was determined by randomly counting 200 cells. The results were calculated as the survival index, which was obtained by multiplying the percentage of infected cells by the number of amastigotes per infected LLCMK2 cell and then determining the percentage of inhibition. […] The data were calculated and mathematically expressed as a Combination Index: CI=(IC50 VK3 combined/IC50 VK3 alone)+(IC50 VC combined/IC50 VC alone) for epimastigotes and amastigotes and CI=(EC50 VK3 combined/EC50 VK3 alone)+(EC50 VC combined/EC50 VC alone) for trypomastigotes. […]

[4] = tested on: parasitic forms of Trypanosoma cruzi; test: Total ROS production (H2DCFDA labeling); settings: H2O2 20.0 μM
Method: FIGS. 2A, 2B, and 2C show the effects of VC and VK3 on the total reactive oxygen species (ROS) production in parasitic forms of Trypanosoma cruzi, where the parasites were treated with VC and VK3, alone and combined, for 24 hrs using H2DCFDA labeling; and where epimastigote forms (FIG. 2A) were treated with 0.61 mM VC and 1.90 μM VK3, alone and combined; trypomastigote forms (FIG. 2B) were treated with 0.20 mM VC and 0.35 μM VK3, alone and combined; and amastigote forms (FIG. 2C) were treated with 0.18 mM VC and 0.30 μM VK3, alone and combined. H2O2 was used as a positive control. Total ROS were measured as an increase in fluorescence that is caused by the conversion of nonfluorescent dye to fluorescent DCF. The results are expressed as the mean fluorescence (in arbitrary units [A.U.]±SE) of at least three independent experiments. The symbol * indicates significant differences compared with the control group (untreated cells; p≤0.05). The production of total reactive oxygen species (total ROS) was evaluated in parasitic forms after exposure to VC and VK3 using the probe H2DCFDA. Epimastigote forms (1×10^6 parasites/mL) were evaluated after exposure to 0.61 mM VC and 1.90 μM VK3, alone and in combination, for 24 hrs at 28° C. Trypomastigote forms (1×10^7 parasites/mL) were evaluated after exposure to 0.20 mM VC and 0.35 μM VK3, alone and in combination, for 24 hrs at 37° C. in a 5% CO2 atmosphere. Amastigote forms (1×10^7 parasites/mL) were evaluated after exposure to 0.18 mM VC and 0.30 μM VK3, alone and in combination, for 24 hrs at 37° C. in a 5% CO2 atmosphere. Hydrogen peroxide (H2O2; 20.0 μM) was used as a positive control. Afterward, the parasites were centrifuged, washed, and resuspended in PBS. Parasites were loaded with 10.0 μM of the permeant probe H2DCFDA in the dark for 45 min.

Q: What does the source list for CC1=CC(=O)c2ccccc2C1=O [VK3, 2-methyl-1,4-naphthalenedione]?
A: IC50 ([1]; .61 mM VC, read-out: VK3 concentration in the combination with synergistic effect on 50% of the parasites (IC50 VK3 combined)): 1.9 µM; EC50 ([2]; combined with 0.20 mM VC, read-out: VK3 concentration in the combination with synergistic effect on 50% of the parasites (EC50 VK3 combined)): 0.35 µM; IC50 ([3]; LLC-MK2, combined with 0.18 mM VC, read-out: VK3 concentration in the combination with synergistic effect on 50% of the parasites (IC50 VK3 combined)): 0.3 µM

Q: OO [H2O2, Hydrogen peroxide] was tested. Which “increase in ROS production (positive control)” value (from here on “increase in ROS production”) ([4]; amastigotes) did it give?
A: 60%

Q: What about the “increase in ROS production” value ([4]; epimastigotes) of the same compound?
A: 69%

Q: And the “increase in ROS production” value ([4]; trypomastigotes)?
A: 77%

Q: Which IC50 ([1]; combined with 1.90 μM VK3, read-out: VC concentration in the combination with synergistic effect on 50% of the parasites (IC50 VC combined)) does the source give for O=C1O[C@H]([C@@H](O)CO)C(O)=C1O [VC, L-ascorbic acid] here?
A: 610 µM

Q: And the EC50 ([2]; combined with 0.35 μM VK3, read-out: VC concentration in the combination with synergistic effect on 50% of the parasites (EC50 VC combined))?
A: 200 µM

Q: What about the IC50 ([3]; LLC-MK2, combined with 0.30 μM VK3, read-out: VC concentration in the combination with synergistic effect on 50% of the parasites (IC50 VC combined)) of the same compound?
A: 180 µM
